These results are taken from US10011589B2, “Treatments for gastrointestinal conditions” (BOARD OF REGENTS, THE UNIVERSITY OF TEXAS SYSTEM, priority 2014, dated 2018).

SMILES strings stand for the structures. ≈ marks a conversion by molar mass, not a printed value. Read-outs that look alike come from different tables or passages of the source.

In data set [1] the test system is C. difficile strains R20291 and BAA-1875. In words: MIC testing against C. difficile strains R20291 and BAA-1875. Format: cell-based, Clostridium difficile. The settings on record: for fold less active than 1971 (MIC): relative to parent 1971. The protocol:
(§1) The synthesized compounds were initially tested against four virulent C. difficile strains: CD1803 (toxinotype III, 95 NAP1), CD1875 (toxinotype V, NAP7), R20291 (ribotype 027—from A. Sonenshein, Tufts University, USA), and BAA-1875 (ribotype 078, from American Type Culture Collection-ATCC). The activities (i.e. Minimum Inhibitory Concentrations-MICs) of test compounds were determined in 24 or 96 well microtitre plates using bacterial inocula of 10^6 cfu/mL and were defined as the lowest concentration of test compound that inhibited visible growth after 24 h of incubation at 37° C. in an A35 anaerobic chamber (Don-Whitley).

Data set [2] has as its system C. difficile strain BAA-1803. In words: MIC against C. difficile strain BAA-1803. The class given is cell-based, Clostridium difficile. Particulars: 3-position substituents. The protocol:
as §1

In data set [3] the test system is C. difficile strain ATCC 43596. In words: MIC against infecting strain ATCC 43596. The settings on record: infecting strain ATCC 43596. Format: cell-based, Clostridium difficile.
A further data set concerns Caco-2 monolayer. Description: Caco-2 cell permeability assay. The class given is in vitro ADME. The protocol:
The permeability co-efficient (Papp A-B) of the compounds were calculated and the ability of compounds to move from the apical to the basolateral side of Caco-2 monolayer is shown in FIG. 16.

Data set [4] can be described thus: Pharmacokinetic study in hamsters, plasma. Format: in vivo. Particulars: male, Syrian, po, hamster, 100 mg/kg in PEG-400:water (85:15); for AUC: read-out: total exposure (AUC) in plasma. The method, then: (§2) Pharmacokinetic studies were assessed in male Syrian hamsters (˜100 g), from Charles-River, with each carrying a pre-implanted jugular vein cannula. Hamsters (n=5 per group) were fasted overnight and for the duration of the experiment (7 h). After collecting pre-dose blood samples (200 μL), animals were dosed with 100 mg/kg of compounds formulated in PEG-400:water (85:15). At various time points blood samples were collected into heparinized coated tubes that were centrifuged at 3000 rpm for 10 min to yield plasma, which was stored at −20° C. After dosing animals (n=3 per time point) as above, animals were humanely sacrificed at time points and their cecal contents collected and stored at −20° C. For plasma samples, 25 μL of plasma was placed in 384-well analytical plate and quenched by the addition of 50 μL of acetonitrile containing 4 mg/L warfarin as an internal standard. The plate was sealed, shaken at 600 rpm for 10 min, and then was centrifuged at 4000 rpm for 20 min. 15 μL of the supernatant was transferred to a new analytical 96-well plate and mixed with 100 μL of MilliQ water. The samples were analyzed by injecting 5 μL onto a Waters UPLC/SQD LC-MS/MS system. The cecal samples were processed by adding 100 μL of acetonitrile containing 4 mg/L of warfarin (internal standard) to the microfuge tubes containing cecal matter (˜50 mg). The suspension was vortexed for 10 sec, sonicated for 1 min and then centrifuged at 10,000 rpm for 10 min. Aliquots (50 μL) of the collected supernatants were then transferred to a 384-well plate and analyzed by high resolution mass spectroscopy using Waters XEVO QTOF LCMS.

Data set [5] in a line: Cecal content concentrations in hamsters. Particulars: for mean peak cecal concentration: hamster cecal contents at 1, 3 and 5 h after oral dosing 100 mg/kg, LLOQ 10 ng/mL. Format: in vivo. The method, then:
as §2, with “After” for “Pharmacokinetic studies were assessed in male Syrian hamsters (˜100 g), from Charles-River, with each carrying a pre-implanted jugular vein cannula. Hamsters (n=5 per group) were fasted overnight and for the duration of the experiment (7 h). After collecting pre-dose blood samples (200 μL), animals were dosed with 100 mg/kg of compounds formulated in PEG-400:water (85:15). At various time points blood samples were collected into heparinized coated tubes that were centrifuged at 3000 rpm for 10 min to yield plasma, which was stored at −20° C. After”
To evaluate this in vivo, we determined the concentrations of the three compounds in the cecal contents recovered from hamsters at 1, 3 and 5 h time points following oral dosing (FIG. 19).

The nature of data set [6]: In vitro microsomal stability. The class given is in vitro ADME. Particulars: microsomes; data not shown; read-out: microsomal stability t½ (converted). From the text:
Thus, the very low concentration of the hybrids in the plasma might likely be due to a combination of poor intestinal absorption and hepatic clearance.

A further data set has as its system C. difficile. In words: MIC of nitro and des-nitro analogs (mode of action). The class given is cell-based, Clostridium difficile. Particulars: Clostridioides difficile; des-nitro analogs (FIG. 11).
The subject of data set [7] is C. difficile strain ATCC 43596. In words: Hamster model of CDI (efficacy). Particulars: vancomycin 20 mg/kg; hybrids 50 mg/kg. Format: in vivo, Golden Syrian hamsters. The protocol:
Golden Syrian hamsters (˜100 g) from Charles River Laboratories were separately housed in sterile cages and maintained on sterile food and water. On day −1, animals were subcutaneously injected with clindamycin phosphate solution (50 mg/kg, from Hospira). After 20 h (day 0), hamsters were infected by oral gavage with 10^6 cfu of the C. difficile strain ATCC 43596 grown in Sporulation Medium and washed once with pre-reduced PBS; 15. […] After 5 days of treatment, surviving hamsters were monitored for up to 30 days for signs of disease as described by Anton et al. All moribund animals were euthanized, as well as those that survived the post-treatment monitoring period (30 days); ceca were recovered from all animals. All animal experiments were approved by The Institutional Animal Care and Use Committee of The University of Texas at Arlington.

The conditions of data set [8]: literature; cited from earlier work.
The mark [9] stands for this setting: Clostridioides difficile, ATCC43596, read-out: MIC.

Regarding `CC(=O)C1=C(O)C(CC(C)C)N(CCn2c([N+](=O)[O-])cnc2C)C1=O` (stereo not drawn) [Compound 1971, 3-acetyl-4-hydroxy-5-isobutyl-1-(2-(2-methyl-5-nitro-1H-imidazol-1-yl)ethyl)-1H-pyrrol-2(5H)-one], the MIC in data set [1] (Clostridioides difficile, BAA1875, C. difficile R20291 and BAA-1875 (FIG. 8), 24 h, 37° C., anaerobic) was 1 to 2 µg/mL (≈ 2.85 to 5.71 µM); in [3] (setting [9]), 0.5 µg/mL (≈ 1.43 µM). Also, in data set [1] (relative to metronidazole), the “fold less active than metronidazole (MIC)” value is 4 to 8 fold. Further, the “activity / MIC in words (FIG. 10)” value in data set [2] is “No difference in MIC”.
Take `Cc1cnc([N+](=O)[O-])n1CCNC(=O)C1=C(O)C(CC(C)C)NC1=O` (stereo not drawn) [Compound 2122, 4-hydroxy-5-isobutyl-N-(2-(5-methyl-2-nitro-1H-imidazol-1-yl)ethyl)-2-oxo-2,5-dihydro-1H-pyrrole-3-carboxamide]: the “fold less active than 1971 (MIC)” value in data set [1] is listed as 24 fold.
Same read-out and setting: next, `Cc1ncc([N+](=O)[O-])n1CC(=O)C1=C(O)C(CC(C)C)NC1=O` (stereo not drawn) [Compound 2123, 4-hydroxy-5-isobutyl-3-(2-(2-methyl-5-nitro-1H-imidazol-1-yl)acetyl)-1H-pyrrol-2(5H)-one]: 10 fold; `CC(=O)C1=C(O)CN(CCn2c([N+](=O)[O-])cnc2C)C1=O` [Compound 2153, 3-acetyl-4-hydroxy-1-(2-(2-methyl-5-nitro-1H-imidazol-1-yl)ethyl)-1H-pyrrol-2(5H)-one]: greater than 64 fold.
For the compound `CC(=O)C1=C(O)C(Cc2ccccc2)N(CCn2c([N+](=O)[O-])cnc2C)C1=O` (stereo not drawn) [Compound 2154, 3-acetyl-5-benzyl-4-hydroxy-1-(2-(2-methyl-5-nitro-1H-imidazol-1-yl)ethyl)-1H-pyrrol-2(5H)-one], in the data set with Caco-2 monolayer (Caco-2), the “Caco-2 permeation in words” value is listed as “slightly more permeable than vancomycin” and the “permeability co-efficient (Papp A-B)” value is given as 284.5±34.7 to 307±35.6.
For the compound `CCC(C)C1C(O)=C(C(C)=O)C(=O)N1CCn1c([N+](=O)[O-])cnc1C` (stereo not drawn) [Compound 2155, 3-acetyl-5-(sec-butyl)-4-hydroxy-1-(2-(2-methyl-5-nitro-1H-imidazol-1-yl)ethyl)-1H-pyrrol-2(5H)-one], in the data set with Caco-2 monolayer (Caco-2), the “Caco-2 permeation in words” value is given as “slightly more permeable than vancomycin” and the “permeability co-efficient (Papp A-B)” value was 284.5±34.7 to 307±35.6.
In the same order, the values of `CC(=O)C1=C(O)C(CSCc2ccccc2)N(CCn2c([N+](=O)[O-])cnc2C)C1=O` (stereo not drawn) [Compound 2313, 3-acetyl-5-((benzylthio)methyl)-4-hydroxy-1-(2-(2-methyl-5-nitro-1H-imidazol-1-yl)ethyl)-1H-pyrrol-2(5H)-one] are “slightly more permeable than vancomycin” and 284.5±34.7 to 307±35.6.
In the case of `Cc1ncc([N+](=O)[O-])n1CCN1C(=O)C=C(O)C1CC(C)C.O=C(O)C(F)(F)F` (stereo not drawn) [Compound 2314, 4-hydroxy-5-isobutyl-1-(2-(2-methyl-5-nitro-1H-imidazol-1-yl)ethyl)-1H-pyrrol-2(5H)-one, TFA], the “activity / MIC in words (FIG. 10)” value in data set [2] is “loss of activity”.
On to `Cc1ncc([N+](=O)[O-])n1CCN1C(=O)C(C(=O)c2ccc(F)cc2)=C(O)[C@H]1CC(C)C` [Compound 2315, (R)-3-(4-fluorobenzoyl)-4-hydroxy-5-isobutyl-1-(2-(2-methyl-5-nitro-1H-imidazol-1-yl)ethyl)-1H-pyrrol-2(5H)-one], for which, in [2], the “activity / MIC in words (FIG. 10)” value was “No difference in MIC”. In the data set with Caco-2 monolayer (Caco-2), the “Caco-2 permeation in words” value is on record as “slightly more permeable than vancomycin” and the “permeability co-efficient (Papp A-B)” value is reported as 284.5±34.7 to 307±35.6.
For the compound `CC(=O)C1=C(O)C(Cc2cccc3ccccc23)N(CCn2c([N+](=O)[O-])cnc2C)C1=O` (stereo not drawn) [Compound 2344, 3-acetyl-4-hydroxy-1-(2-(2-methyl-5-nitro-1H-imidazol-1-yl)ethyl)-5-(naphthalen-1-ylmethyl)-1H-pyrrol-2(5H)-one], in data set [3] (setting [9]), the MIC turned out to be 0.25 µg/mL (≈ 0.575 µM). Also, in [4], the concentration peaked (Cmax) at 211 ng/mL, the Tmax is 15 min and the AUC is 386 ng·h/mL. Moreover, in [5], the “mean peak cecal concentration” value is 2,678 ng/mL. Also, the half-life in data set [6] was 18 min.
In the case of `CC(=O)C1=C(O)C(Cc2ccc(-c3ccccc3)cc2)N(CCn2c([N+](=O)[O-])cnc2C)C1=O` (stereo not drawn) [Compound 2345, 5-([1,1′-biphenyl]-4-ylmethyl)-3-acetyl-4-hydroxy-1-(2-(2-methyl-5-nitro-1H-imidazol-1-yl)ethyl)-1H-pyrrol-2(5H)-one], the MIC in data set [3] (setting [9]) amounted to 0.25 µg/mL (≈ 0.543 µM). Moreover, in data set [4], the Cmax turned out to be 616 ng/mL, the Tmax was 15 min and the AUC worked out at 355 ng·h/mL. Besides, the “fold difference in cecal concentration of 2344 and 2345” value in [5] (2345 versus 2344) turned out to be 12 fold. In addition, in data set [5], the “mean peak cecal concentration” value is on record as 32,649 ng/mL. In data set [6], the half-life was 79.8 min.
For the compound `CC(=O)C1=C(O)C(Cc2cn(C)c3ccccc23)N(CCn2c([N+](=O)[O-])cnc2C)C1=O` (stereo not drawn) [Compound 2490], the MIC in data set [3] was determined as 0.25 µg/mL (≈ 0.571 µM).
On to `CC(=O)C1=C(O)C(Cc2cccc3ccccc23)N(CCn2ccnc2C)C1=O` (stereo not drawn) [Compound 2699, 3-acetyl-4-hydroxy-1-(2-(2-methyl-1H-imidazol-1-yl)ethyl)-5-(naphthalen-1-ylmethyl)-1H-pyrrol-2(5H)-one], for which, in the data set with C. difficile, the MIC was greater than 128 µg/mL.
On the same count and under the same terms, as for `CC(=O)C1=C(O)C(Cc2ccc(-c3ccccc3)cc2)N(CCn2ccnc2C)C1=O` (stereo not drawn) [Compound 2700, 5-([1,1′-biphenyl]-4-ylmethyl)-3-acetyl-4-hydroxy-1-(2-(2-methyl-1H-imidazol-1-yl)ethyl)-1H-pyrrol-2(5H)-one], the figure is greater than 128 µg/mL.
As to `CN[C@H](CC(C)C)C(=O)N[C@H]1C(=O)N[C@@H](CC(N)=O)C(=O)N[C@H]2C(=O)N[C@H]3C(=O)N[C@H](C(=O)N[C@H](C(=O)O)c4cc(O)cc(O)c4-c4cc3ccc4O)[C@H](O)c3ccc(c(Cl)c3)Oc3cc2cc(c3O[C@@H]2O[C@H](CO)[C@@H](O)[C@H](O)[C@H]2O[C@H]2C[C@](C)(N)[C@H](O)[C@H](C)O2)Oc2ccc(cc2Cl)[C@H]1O` [vancomycin], the “Caco-2 permeation in words” value with Caco-2 monolayer (apical to basolateral) is “poor permeation properties”. Further, the “complete survival, days post-treatment” value in data set [7] is listed as “more than 20 days”. Moreover, the “absorbed from the gastrointestinal tract” value in data set [8] is less than 10%.
